# Test results published in US6610699B2, “Use of L-carnitine and its alkanoyl derivatives in the preparation of medicaments with anticancer activity” (Sigma-Tau Industrie Farmaceutiche Riunite S.p.A., priority 1998, dated 2003).
# Where two headings read alike, the source gives them in different places. Marks after values point to notes of the source that are not given here.
# Key:
# [1] = test system: murine cancer of the breast (L-MM3); test: L-MM3 tumour growth in Balb/c mice (taxol and ALC); type: in vivo, mouse
# Procedure: Treatment schedule 1: the transplantable murine breast cancer cells (L-MM3) of Balb/c origin are grown at 37° C. in plastic flasks in a 5% CO2 humidified incubator in DMEM medium containing 5% heat-inactivated FCS, L-glutamine 2 mM, and gentamicin 80 μg/ml. At the time of inoculation, the cells are detached with trypsin-EDTA and re-suspended in the same medium without PBS.
# Unanaesthetised female Balb/c mice received subcutaneous injections in the flank of 4×10^5 cells in 0.2 ml of DMEM.
# Treatment schedule 2: the same experimental groups mentioned above, each consisting of 15 mice (with different cage numbers) are treated as follows in order to evaluate survival and tumour size.
# ALC administration lasts 14 days (in groups 16, 17, 18) and the tumour is measured until it reaches a size of approximately 2 cm. The animals are left alive for 100 days.
# The tumour size (length and width) is measured twice a week with a calliper, from the tumour is measurable. Tumour size is expressed in cm and is evaluated according to the following formula: (length×width).
# Tumour sizes are compared using the non-parametric Mann Whitney test for unpaired data.
# [2] = Taxol-induced weight loss: body weight; type: in vivo, rat; settings: for Body weight, BASAL: prior to starting treatment; for Body weight, % vs BASALE / Body weight, % vs SHAM: 5 weeks; for Body weight, 5 WEEKS: end of treatment
# Excerpt: The animals used in the preceding experimental model were weighed prior to starting treatment (basal values) and at the end of treatment.
# M109 murine lung cancer = test: Growth of M109 murine lung cancer in BALB/c mice; type: in vivo, mouse; settings: for Tumour size, Day 8 / Tumour size, Day 11 / Tumour size, Day 13 / Tumour size, Day 15 / Tumour size, Day 20: taxol 30 mg/kg i.p., ALC 100 mg/kg os; for Tumour size, Day 8: day 8 post-inoculation; for Tumour size, Day 11: day 11 post-inoculation; for Tumour size, Day 13: day 13 post-inoculation; for Tumour size, Day 15: day 15 post-inoculation; for Tumour size, Day 20: day 20 post-inoculation
# Procedure: Each ampoule of ALC is dissolved in 4 ml of the solvent provided (solution O). To be precise, 1.6 ml of solution O are brought to 40 ml with sterile buffer solution (PBS, Sigma P-4417) and then administered orally (100 mg/kg/20 ml).
# At the time of use, the 12 mg/ml solution is diluted 1:4 with saline in phosphate buffer (PBS) (SIGMA,) and injected i.p. (30 mg/kg/ 10 ml).
# Animals: 60 female Balb/c mice weighing 18 g (Harlan).
# M109 tumour cells isolated from solid tumour.
# The procedure described by Kedar E., B. Ikejiri, G. D. Bannard and R. B. Herberman (Eur. J. Cancer Clin. Oncol. 18; 991: 1982) is adopted with modifications. One Balb/c mouse (donor) was sacrificed by cervical dislocation, and after washing its back with denatured alcohol, the dorsal skin was cut longitudinally into two flaps which were detached to remove the tumour mass. The latter was placed on sterile gauze, where it was freed of connective tissue adhesions and of the necrotic and haemorrhagic parts. The study tissue was placed in a plate containing PBS with Ca^++ and Mg^++ (Gibco) at pH 7.2 and cold, broken down into pieces measuring 2-3 mm and re-suspended in a solution (15 ml solution/g tumour) of PBS with Ca^++ and Mg^++, pH 7.2m containing 2 mg/ml trypsin (type III. 10000 U/mg protein, Sigma-Aldrich), 2 mg/ml collagenase (type I-S 180 U/mg solid, Sigma), 0.2 mg/ml DNAse (type I 1548 U/mg protein. Sigma) and 25 μg/ml gentamicin (Sigma) and incubated at 37° C. for 15 minutes under constant stirring. The cell suspension was then homogenised with the aid of a potter (B. Braun) for 2 minutes, incubated at 37° C. for 10 minutes and aspirated gently a number of times with a syringe with a No. 21 sterile needle. After addition of 30 ml of RPMI-1640 (Eurobio) containing 10% FBS (Eurobio) maintained at 4° C. the cell suspension was filtered on sterile gauze and then centrifuged at 700 g for 10 minutes. The cell pellet was re-suspended gently in RPMI-1640 containing 10% FBS and 0.2 mg/ml DNAse (Sigma) and then centrifuged at 700 g for 10 minutes. The pellet was consecutively subjected to two washings with RPMI-1640; at the end of the last washing, the pellet was re-suspended gently in RPMI-1640 so as to perform the count to establish the cell concentration.
# Inoculation conditions: 60 unanaesthetised Balb/c mice weighing approximately 18 g (Harlan) received i.m. injections of 3×10^5 M109 lung cancer cells in 0.1 ml of RPMI-1640 (Sigma) in the right rear paw.
# Treatment schedule: for the purposes of evaluating tumour size in the experimental study groups, each consisting of 15 Balb/c mice, 3×10^5 M109 lung cancer cells were inoculated, and the study molecules were administered at the scheduled times. […] The vehicle diluted 1:4 with PBS from the mother solution was administered i.p. on days 8, 10, 12 and 14.
# The tumour mass is calculated on the basis of the measurements of the two dimensions (length and width), expressed in mm. according to the following formula: [formula]
# If we consider conventionally a tumour density equal to 1, the result is that the tumour volume expressed in mm^3 is equal to the weight of the tumour expressed in mg.
# [3] = test system: L-MM3 murine breast cancer cells; test: L-MM3 murine breast cancer in Balb/c mice, taxol and PLC, Experiment B (schedule B)
# Procedure: Cell cultures of L-MM3 murine breast cancer cells were used, cultured at 37° C. in plastic flasks in a humidified atmosphere with 5% CO^2. The cells were grown in DMEM supplemented with 10% FCS and in the presence of 2 mM L-glutamine and 80 μg/ml of gentamicin. The subconfluent cells were collected during the exponential growth phase using trypsin-EDTA and re-suspended in DMEM. They were then injected subcutaneously in female Balb/c mice weighing 20 g at a density of 4×10^5.
# The tumour was measured with a calliper three times a week as soon as it became palpable. The tumour mass is calculated on the basis of the measurements of the two dimensions (length and width), expressed in mm, according to the following formula: [formula]
# If we consider conventionally a tumour density equal to 1, the result is that the tumour volume is equal to (mm^3=mg).
# The agent is weighed, solubilised in the specific vehicle (12 mg/ml), and stored at +4° C., sheltered from the light. At the time of use, it is diluted 1:4 with saline solution in phosphate buffer (PBS, SIGMA) and injected.
# Cremophor is diluted 1:1 with ethanol and stored sheltered from the light. On the day of treatment it is diluted 1:4 with PBS.
# Hamsters [4] = test: Bleomycin-induced pulmonary toxicity in hamsters: lung hydroxyproline content; type: in vivo, hamster; settings: pre-treatment i.p. (ALC 200 mg/kg or saline, daily 1 week)/intratracheal instillation (bleomycin 1 unit or saline); day 22
# Procedure: (§1) Hamsters weighing 120 g were treated with bleomycin (1 unit) by the intratracheal route (IT) or with an equivalent volume of saline. In addition, the animals were pre-treated with ALC (200 mg/kg) or saline intraperitoneally just before the instillation of bleomycin, followed by daily injections for 1 week. The animals were allowed 3 weeks to recover prior to taking the tissue samples. At the time tissue samples were taken (day 22), one lung of each animal was prepared for histological investigation and the other lung for quantitative determination of hydroxyproline.
# The hydroxyproline content (one of the main constituents of collagen) was measured using the known Woessner method. Lung samples were homogenised, hydrolysed with NaOH, and then left to oxidise before adding Erlich aldehyde reagent. Duplicate aliquots of each sample were assayed by spectrophotometry and compared with a standard calibration curve obtained with purified hydroxyproline. The hydroxyproline content (HYP) is expressed as mg/lung.
# Hamsters [5] = test: Bleomycin-induced pulmonary toxicity in hamsters: lung histology; type: in vivo, hamster; settings: day 22
# Procedure: as §1
# The lungs were fixed by insufflation at 20 cm of H2O ex vivo with 10% formaldehyde in PBS (pH 7), embedded in paraffin, sectioned and stained with haematoxylin/eosin. Sections with similar orientation from the portion of the pulmonary lobe—upper, middle and lower, respectively—were examined to verify the presence and degree of inflammatory infiltrate, oedema and interstitial and intra-alveolar fibrosis.
# LOVO human colon cancer = settings: ALC 100 mg/kg qdx18 alone
# Procedure: Cell cultures of LOVO human colon cancer, transplanted in hairless mice, were used.
# The tumour was inoculated in solid fragments in both flanks of the mice (day 0).
# The inoculated tumours were measured with a calliper and when a mean tumour weight of 100 mg was reached (day 7), the animals were divided into 4 groups of 5 animals each according to the following schedule:
# On the same day, ALC treatment was initiated and was continued for 18 consecutive days (qdx18) (groups 3 and 4). ALC was administered at the dose of 100 mg/kg with an administration volume of 25 ml/kg.
# In the course of the treatment and in the following three weeks at fortnightly intervals, the tumours were measured and tumour volume inhibition was calculated (TVI%, calculated as 100-(mean weight of tumours treated/mean weight of control tumours×100)) as obtained with the various treatments.
# [6] = taxol i.v. 54 mg/kg/15 ml, sacrifice after 3 days' recovery from last taxol administration
# [7] = taxol i.v., sacrifice 6 hours after fourth taxol administration
smiles,measurement,setting,value
"CC(=O)O[C@H]1C(=O)[C@@]2(C)[C@H]([C@H](OC(=O)c3ccccc3)[C@]3(O)C[C@H](OC(=O)[C@H](O)[C@@H](NC(=O)c4ccccc4)c4ccccc4)C(C)=C1C3(C)C)[C@]1(OC(C)=O)CO[C@@H]1C[C@@H]2O [Taxol, paclitaxel, reference compound]",L-MM3 tumour size,"[1]; taxol 30 mg/kg i.p. every two days x4, when control tumours reached approximately 2 cm (control 1.8 cm)",0.56 cm
same,Absolute neutrophils,BALB/c mice; [6],330 ± /mm^3
same,Lymphocytes,BALB/c mice; [6],93.0%
same,Neutrophils,BALB/c mice; [6],7.0%
same,Absolute neutrophils,BALB/c mice; [7],229 ± /mm^3
same,Lymphocytes,BALB/c mice; [7],97.1%
same,Neutrophils,BALB/c mice; [7],****2.9%
same,"Body weight, BASAL",[2]; taxol 8 mg/kg groups,210 ± 9.1
same,"Body weight, % vs BASALE",[2]; taxol 8 mg/kg,+13** %
same,"Body weight, % vs SHAM",[2]; taxol 8 mg/kg,+1%
same,"Body weight, 5 WEEKS",[2]; taxol 8 mg/kg,237 ± 20.8
same,"Body weight, BASAL",[2]; taxol 16 mg/kg groups,212 ± 12.5
same,"Body weight, % vs BASALE",[2]; taxol 16 mg/kg,−15** %
same,"Body weight, % vs SHAM",[2]; taxol 16 mg/kg,−23● %
same,"Body weight, 5 WEEKS",[2]; taxol 16 mg/kg,180 ± 16.0
same,"Tumour size, Day 8",M109 murine lung cancer,539 mm^3
same,"Tumour size, Day 11",M109 murine lung cancer,662 ± mm^3
same,"Tumour size, Day 13",M109 murine lung cancer,622 ± mm^3
same,"Tumour size, Day 15",M109 murine lung cancer,857 ± mm^3
same,"Tumour size, Day 20",M109 murine lung cancer,1085 ± mm^3
same,"Animals with tumours/total animals, Day 45",[3],5/10
same,"Animals with tumours/total animals, Day 59",[3],6/10
same,"Tumour size, Day 26",[3],0.1 ± 0.6
same,"Tumour size, Day 31",[3],0.2 ± 0.2
same,"Tumour size, Day 37",[3],0.45 ± 0.2
same,"Tumour size, Day 41",[3],1.750 ± 1.1
same,"Tumour size, Day 53",[3],5.000 ± 2.2
same,"Tumour size, Day 59",[3],5.6 ± 2.2
same,"Tumour size, Day 0",[3]; day of inoculation,0
same,"Animals with tumours/total animals, Day 31","[3]; taxol 30 mg/kg i.p. days 8,10,12,14, PLC 100 mg/kg s.c. to day 59",2/10
"CC(=O)O[C@H](CC(=O)[O-])C[N+](C)(C)C [Vehicle + ALC, acetyl L-carnitine]","Tumour size, Day 8",M109 murine lung cancer,567 mm^3
same,"Tumour size, Day 11",M109 murine lung cancer,959 mm^3
same,"Tumour size, Day 13",M109 murine lung cancer,1289 mm^3
same,"Tumour size, Day 15",M109 murine lung cancer,1779 ± mm^3
same,"Tumour size, Day 20",M109 murine lung cancer,2251 mm^3
"CC(=O)O[C@H](CC(=O)[O-])C[N+](C)(C)C [ALC, acetyl L-carnitine]",effect on the anticancer activity of taxol (in words),[1]; ALC 100 mg/kg os once daily for 14 days plus taxol 30 mg/kg i.p. x4,did not affect the anticancer activity of taxol
same,"effect on the anticancer action of taxol, inhibition of the tumour mass (in words)",M109 murine lung cancer; ALC 100 mg/kg os with taxol 30 mg/kg i.p.,does not interfere with the anticancer action of taxol
same,hydroxyproline content (HYP),Hamsters [4],0.801 mg/lung
same,lung histology (in words),Hamsters [5]; animals pre-treated with ALC and given bleomycin IT,"a number of fibrotic areas, which, however, appeared thinner with less dense areas of collapse"
same,lung histology (in words),Hamsters [5]; pre-treatment/IT instillation,normal alveolar architecture
same,effect on tumour growth (in words),LOVO human colon cancer,no effect on tumour growth
